Where “and” joins values, the source holds several entries; their conditions need not be identical. Identical values can stand only once. Toxic doses and inconclusive results are not listed.
Test system: L1210 leukemia ip in BDF1 mice, survival T/C
Assay: NCI In Vivo Anticancer Drug Screen. Data for tumor model L1210 Leukemia (intraperitoneal) in B6D2F1 (BDF1) mice
Details: endpoint: mean survival time, higher = longer survival
Outline: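 Transplanted-tumor mice were given test agent; controls received vehicle only. Survival readings from the two groups were divided (treated over control).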

[1] = dose: 100.0 mg/kg/injection, schedule: Q01DX001 (ip), vehicle: carboxymethylcellulose (CMC)
[2] = dose: 100.0 mg/kg/injection, schedule: Q01DX009 (ip), vehicle: Klucel (hydroxypropylcellulose) (HPC)
[3] = dose: 200.0 mg/kg/injection, schedule: Q01DX009 (ip), vehicle: Klucel (hydroxypropylcellulose) (HPC)
[4] = dose: 400.0 mg/kg/injection, schedule: Q01DX009 (ip), vehicle: Klucel (hydroxypropylcellulose) (HPC)
[5] = dose: 50.0 mg/kg/injection, schedule: Q01DX009 (ip), vehicle: other
[6] = dose: 50.0 mg/kg/injection, schedule: Q01DX009 (ip), vehicle: saline with Tween-80
[7] = dose: 100.0 mg/kg/injection, schedule: Q01DX009 (ip), vehicle: saline with Tween-80
[8] = dose: 200.0 mg/kg/injection, schedule: Q01DX009 (ip), vehicle: saline with Tween-80

In the case of `C=CCOc1ccccc1OCC=C`, the T/C [1] is reported as 107 % of control, the T/C (dose: 200.0 mg/kg/injection, schedule: Q01DX001 (ip), vehicle: carboxymethylcellulose (CMC)) is reported as 102 % of control and the T/C (dose: 400.0 mg/kg/injection, schedule: Q01DX001 (ip), vehicle: carboxymethylcellulose (CMC)) is reported as 100 % of control.
For `CNc1ccc(C(=O)OC)cc1`, the T/C (dose: 100.0 mg/kg/injection, schedule: Q01DX001 (ip), vehicle: saline) was 100 % of control, the T/C (dose: 200.0 mg/kg/injection, schedule: Q01DX001 (ip), vehicle: saline) was 100 % of control and the T/C (dose: 400.0 mg/kg/injection, schedule: Q01DX001 (ip), vehicle: saline) was 103 % of control.
For `c1ccc(P(=NC2CCCCC2)(c2ccccc2)c2ccccc2)cc1`, the T/C (dose: 50.0 mg/kg/injection, schedule: Q04DX003 (ip), vehicle: acetone) was 96 % of control and the T/C (dose: 100.0 mg/kg/injection, schedule: Q04DX003 (ip), vehicle: acetone) was 94 % of control.
In the case of `O=[N+]([O-])c1ccc(C(Cl)C2(Br)C=c3ccccc3=C2)cc1` (configuration not stated), the T/C [2] is reported as 103 % of control, the T/C (dose: 100.0 mg/kg/injection, schedule: Q04DX003 (ip), vehicle: Klucel (hydroxypropylcellulose) (HPC)) is reported as 105 % of control and the T/C [3] is reported as 98 % of control. For the same compound, the T/C (dose: 200.0 mg/kg/injection, schedule: Q04DX003 (ip), vehicle: Klucel (hydroxypropylcellulose) (HPC)) was 94 % of control, the T/C [4] was 95 % of control and the T/C (dose: 400.0 mg/kg/injection, schedule: Q04DX003 (ip), vehicle: Klucel (hydroxypropylcellulose) (HPC)) was 97 % of control.
With `CCCCNC(C)(C)C(SS)c1ccc(Cl)cc1` (configuration not stated) the T/C [5] was 94 % of control and the T/C (dose: 100.0 mg/kg/injection, schedule: Q01DX009 (ip), vehicle: other) was 92 % of control.
In the case of `N#C[C@@H]1C2C=CC(CC2)[C@H]1C#N`, the T/C (dose: 0.5 mg/kg/injection, schedule: Q03HX024 (ip), vehicle: gum acacia) is reported as 106 % of control, the T/C (dose: 0.7 mg/kg/injection, schedule: Q03HX024 (ip), vehicle: gum acacia) is reported as 106 % of control and the T/C (dose: 1.1 mg/kg/injection, schedule: Q03HX024 (ip), vehicle: gum acacia) is reported as 106 % of control. For the same compound, the T/C (dose: 1.6 mg/kg/injection, schedule: Q03HX024 (ip), vehicle: gum acacia) was 102 % of control, the T/C (dose: 2.4 mg/kg/injection, schedule: Q01DX009 (ip), vehicle: gum acacia) was 104 % of control and the T/C (dose: 2.4 mg/kg/injection, schedule: Q03HX024 (ip), vehicle: gum acacia) was 103 % of control. The T/C (dose: 3.6 mg/kg/injection, schedule: Q01DX009 (ip), vehicle: gum acacia) was 102 % of control, the T/C (dose: 5.0 mg/kg/injection, schedule: Q01DX001 (ip), vehicle: gum acacia) was 103 % of control and the T/C (dose: 5.0 mg/kg/injection, schedule: Q04DX003 (ip), vehicle: gum acacia) was 97 % of control. The T/C (dose: 7.0 mg/kg/injection, schedule: Q01DX001 (ip), vehicle: gum acacia) was 101 % of control, the T/C (dose: 7.0 mg/kg/injection, schedule: Q04DX003 (ip), vehicle: gum acacia) was 97 % of control and the T/C (dose: 11.0 mg/kg/injection, schedule: Q01DX001 (ip), vehicle: gum acacia) was 100 % of control. For the same compound, the T/C (dose: 11.0 mg/kg/injection, schedule: Q04DX003 (ip), vehicle: gum acacia) was 92 % of control.
In the case of `CCN=C(NCC)Nc1ccc(NC(=O)c2ccc(C(=O)Nc3ccc(NC(=NCC)NCC)cc3)cc2)cc1`, the T/C (dose: 1.87 mg/kg/injection, schedule: Q01DX Z (ip), vehicle: water) is reported as 93 % of control, the T/C (dose: 3.75 mg/kg/injection, schedule: Q01DX Z (ip), vehicle: water) is reported as 97 % of control and the T/C (dose: 7.5 mg/kg/injection, schedule: Q01DX Z (ip), vehicle: water) is reported as 109 % of control. For the same compound, the T/C (dose: 8.0 mg/kg/injection, schedule: Q01DX009 (ip), vehicle: carboxymethylcellulose (CMC)) was 156 % of control, the T/C (dose: 16.0 mg/kg/injection, schedule: Q01DX009 (ip), vehicle: carboxymethylcellulose (CMC)) was 167 % of control and the T/C (dose: 20.0 mg/kg/injection, schedule: Q01DX001 (ip), vehicle: carboxymethylcellulose (CMC)) was 103 % of control. For the same compound, the T/C (dose: 21.0 mg/kg/injection, schedule: Q01DX001 (ip), vehicle: other) was 103 % of control, the T/C (dose: 31.0 mg/kg/injection, schedule: Q01DX001 (ip), vehicle: other) was 105 % of control and the T/C (dose: 33.0 mg/kg/injection, schedule: Q01DX009 (ip), vehicle: other) was 190 % of control. The T/C (dose: 40.0 mg/kg/injection, schedule: Q01DX001 (ip), vehicle: carboxymethylcellulose (CMC)) was 104 % of control, the T/C (dose: 47.0 mg/kg/injection, schedule: Q01DX001 (ip), vehicle: other) was 116 % of control and the T/C [5] was 181 % of control. The T/C (dose: 70.0 mg/kg/injection, schedule: Q01DX001 (ip), vehicle: other) was 114 % of control, the T/C (dose: 75.0 mg/kg/injection, schedule: Q01DX001 (ip), vehicle: other) was 118 % of control and the T/C (dose: 75.0 mg/kg/injection, schedule: Q01DX009 (ip), vehicle: other) was 107 % of control. For the same compound, the T/C (dose: 80.0 mg/kg/injection, schedule: Q01DX001 (ip), vehicle: carboxymethylcellulose (CMC)) was 119 % of control, the T/C [1] was 121 % of control and the T/C (dose: 106.0 mg/kg/injection, schedule: Q01DX001 (ip), vehicle: other) was 114 % of control. For the same compound, the T/C (dose: 150.0 mg/kg/injection, schedule: Q01DX001 (ip), vehicle: other) was 153 % of control, the T/C (dose: 160.0 mg/kg/injection, schedule: Q01DX001 (ip), vehicle: carboxymethylcellulose (CMC)) was 167 % of control and 196 % of control and the T/C (dose: 160.0 mg/kg/injection, schedule: Q01DX001 (ip), vehicle: other) was 112 % of control. For the same compound, the T/C (dose: 240.0 mg/kg/injection, schedule: Q01DX001 (ip), vehicle: other) was 227 % of control and the T/C (dose: 300.0 mg/kg/injection, schedule: Q01DX001 (ip), vehicle: other) was 212 % of control.
In the case of `CC(=O)Nc1ccc2ccccc2c1-c1c(NC(C)=O)ccc2ccccc12`, the T/C (dose: 25.0 mg/kg/injection, schedule: Q04DX002 (ip), vehicle: saline with Tween-80) is reported as 97 % of control and the T/C (dose: 50.0 mg/kg/injection, schedule: Q04DX002 (ip), vehicle: saline with Tween-80) is reported as 90 % of control.
With `Oc1ccccc1C=NCCN1CC1.Oc1ccccc1C=NCCN1CC1.[Cu]` the T/C (dose: 6.25 mg/kg/injection, schedule: Q01DX001 (ip), vehicle: Klucel (hydroxypropylcellulose) (HPC)) was 88 % of control, the T/C (dose: 12.5 mg/kg/injection, schedule: Q01DX001 (ip), vehicle: Klucel (hydroxypropylcellulose) (HPC)) was 95 % of control and the T/C (dose: 25.0 mg/kg/injection, schedule: Q01DX001 (ip), vehicle: Klucel (hydroxypropylcellulose) (HPC)) was 95 % of control.
With `COc1ccc(/C=N/NC(=O)c2ccc(Cl)cc2Cl)cc1OC` the T/C [6] was 103 % of control, the T/C [7] was 88 % of control and the T/C [8] was 92 % of control.
In the case of `c1ccc(COP(c2ccccc2)c2ccccc2)cc1`, the T/C (dose: 25.6 mg/kg/injection, schedule: Q04DX002 (ip), vehicle: saline with Tween-80) is reported as 100 % of control, the T/C (dose: 64.0 mg/kg/injection, schedule: Q04DX002 (ip), vehicle: saline with Tween-80) is reported as 96 % of control and the T/C (dose: 160.0 mg/kg/injection, schedule: Q04DX002 (ip), vehicle: saline with Tween-80) is reported as 100 % of control. The T/C (dose: 400.0 mg/kg/injection, schedule: Q04DX002 (ip), vehicle: saline with Tween-80) was 100 % of control.
In the case of `O=C(c1ccccc1)C(O)(c1ccccc1)c1ccccc1`, the T/C (dose: 100.0 mg/kg/injection, schedule: Q04DX002 (ip), vehicle: Klucel (hydroxypropylcellulose) (HPC)) is reported as 89 % of control, the T/C (dose: 200.0 mg/kg/injection, schedule: Q04DX002 (ip), vehicle: Klucel (hydroxypropylcellulose) (HPC)) is reported as 107 % of control and the T/C (dose: 400.0 mg/kg/injection, schedule: Q04DX002 (ip), vehicle: Klucel (hydroxypropylcellulose) (HPC)) is reported as 93 % of control.
In the case of `CCCCCC/C=N/NC(=O)c1ccc[n+](C)c1`, the T/C [6] is reported as 93 % of control, the T/C [7] is reported as 100 % of control and the T/C [8] is reported as 100 % of control.
In the case of `CCOC(=O)/C=C/c1cccc(O)c1`, the T/C (dose: 100.0 mg/kg/injection, schedule: Q01DX001 (ip), vehicle: gum acacia) is reported as 106 % of control, the T/C (dose: 200.0 mg/kg/injection, schedule: Q01DX001 (ip), vehicle: gum acacia) is reported as 110 % of control and the T/C (dose: 400.0 mg/kg/injection, schedule: Q01DX001 (ip), vehicle: gum acacia) is reported as 97 % of control.
`CN(C)c1ccc(N=Nc2cccc([N+](=O)[O-])c2)cc1` was tested, and the T/C [2] was 105 % of control, the T/C [3] was 97 % of control and the T/C [4] was 100 % of control.
With `OC(/C(=C(/c1ccccc1)c1ccc(Cl)cc1)c1ccccc1)(c1ccccc1)c1ccccc1` the T/C [7] was 98 % of control, the T/C [8] was 95 % of control and the T/C (dose: 400.0 mg/kg/injection, schedule: Q01DX009 (ip), vehicle: saline with Tween-80) was 98 % of control.
`CCC(C)C(=Nc1ccc(Cl)c(Cl)c1)N(C)C` (configuration not stated) was tested, and the T/C (dose: 55.0 mg/kg/injection, schedule: Q01DX Z (ip), vehicle: methylcellulose (MC)) was 102 % of control, the T/C (dose: 83.0 mg/kg/injection, schedule: Q01DX Z (ip), vehicle: methylcellulose (MC)) was 96 % of control and the T/C (dose: 125.0 mg/kg/injection, schedule: Q01DX Z (ip), vehicle: methylcellulose (MC)) was 104 % of control.
